Source: ChEMBL document CHEMBL5108016, “Design, synthesis and neurite outgrowth activity of novel ganglioside GM1 derivatives by remodeling of the fatty acid moiety” (Eur J Med Chem, 2022)
The source made the active and inactive calls. The calls are words filed in the database; no cut-off is given here.

Experiments:
[1] = Cytotoxicity against mouse Neuro2a cells assessed as inhibition of cell growth incubated for 24 hrs by MTT assay; format: toxicity, cell-based, N2a
N2a [2] = test: Induction of neurite outgrowth in mouse Neuro2a cells assessed as increase in percentage of neurite-bearing cells at 25 uM incubated for 24 hrs; format: functional, cell-based
N2a [3] = test: Induction of neurite outgrowth in mouse Neuro2a cells assessed as increase in neurite-number per cells at 25 uM incubated for 24 hrs; format: functional, cell-based
N2a [4] = test: Induction of neurite outgrowth in mouse Neuro2a cells assessed as increase in neurite-length per cells at 25 uM incubated for 24 hrs; format: functional, cell-based
N2a [5] = test: Induction of neurite outgrowth in mouse Neuro2a cells assessed as increase in GAP43 protein expression at 25 uM incubated for 24 hrs by immunoblotting analysis; format: functional, cell-based

Row | Compound | IC50 at 24 h [1] | Activity (N2a [2]) | Activity (N2a [3]) | Activity (N2a [4]) | Activity (N2a [5])
1 | CCCCCCCC/C=C\CCCCCCCC(=O)N[C@@H](CO[C@@H]1O[C@H](CO)[C@@H](O[C@@H]2O[C@H](CO)[C@H](O[C@@H]3O[C@H](CO)[C@H](O)[C@H](O[C@@H]4O[C@H](CO)[C@H](O)[C@H](O)[C@H]4O)[C@H]3NC(C)=O)[C@H](O[C@]3(C(=O)O)C[C@H](O)[C@@H](NC(C)=O)[C@@H]([C@@H](O)[C@H](O)CO)O3)[C@H]2O)[C@H](O)[C@H]1O)[C@H](O)/C=C/CCCCCCCCCCCCC | > 200 µM | Active | Active | Active | Active
2 | CCCCCC/C=C\CCCCCCCC(=O)N[C@@H](CO[C@@H]1O[C@H](CO)[C@@H](O[C@@H]2O[C@H](CO)[C@H](O[C@@H]3O[C@H](CO)[C@H](O)[C@H](O[C@@H]4O[C@H](CO)[C@H](O)[C@H](O)[C@H]4O)[C@H]3NC(C)=O)[C@H](O[C@]3(C(=O)O)C[C@H](O)[C@@H](NC(C)=O)[C@@H]([C@@H](O)[C@H](O)CO)O3)[C@H]2O)[C@H](O)[C@H]1O)[C@H](O)/C=C/CCCCCCCCCCCCC | – | Active | Active | Active | –
3 | CCCCCCCCCCCCCCC/C=C/[C@@H](O)[C@H](CO[C@@H]1O[C@H](CO)[C@@H](O[C@@H]2O[C@H](CO)[C@H](O[C@@H]3O[C@H](CO)[C@H](O)[C@H](O[C@@H]4O[C@H](CO)[C@H](O)[C@H](O)[C@H]4O)[C@H]3NC(C)=O)[C@H](O[C@]3(C(=O)O)C[C@H](O)[C@@H](NC(C)=O)[C@@H]([C@@H](O)[C@H](O)CO)O3)[C@H]2O)[C@H](O)[C@H]1O)NC(=O)CCCCCCCCCCCCCCCCC | > 200 µM | – | – | – | –
4 | CCCCCC/C=C\CCCCCCCC(=O)N[C@@H](CO[C@@H]1O[C@H](CO)[C@@H](O[C@@H]2O[C@H](CO)[C@H](O[C@@H]3O[C@H](CO)[C@H](O)[C@H](O[C@@H]4O[C@H](CO)[C@H](O)[C@H](O)[C@H]4O)[C@H]3NC(C)=O)[C@H](O[C@]3(C(=O)O)C[C@H](O)[C@@H](NC(C)=O)[C@@H]([C@@H](O)[C@H](O)CO)O3)[C@H]2O)[C@H](O)[C@H]1O)[C@H](O)/C=C/CCCCCCCCCCCCCCC | > 200 µM | Active | Active | Active | –
